Assay results reported in PMC12775823, “Glucosylceramide regulates depression through activating peroxisome proliferator-activated receptor gamma in dorsal striatum” (Theranostics, 2026).

Tests used:
[1] = test system: T1, PPARγ-LBD; test: Bio-layer interferometry, PPARγ LBD; type: binding, human; conditions: biolayer interferometry, Figure S7D, E
T1 construct: human PPARγ-LBD (residues 223-505); 6xHis; made in house; host or cells: E. coli BL21 (DE3)
Experimental: The bio-layer interferometry assay was performed at 30 °C on the Octet RED96 System (ForteBio, USA) with PBS as the running buffer. Purified PPARγ-LBD were biotinylated using the EZ-Link Sulfo-NHS-LC-Biotinylation Kit (Thermo Fisher Scientific, USA) according to the manufacturer's instructions. The biotinylated PPARγ was then immobilized onto SSA Biosensors (ForteBio, USA), pre-equilibrated in the running buffer. The biosensors were incubated with various concentrations of the GlcCer or pioglitazone, followed by dissociation. The data were analyzed and the binding parameters were determined using the software supplied by the manufacturer.

[2] = test system: T2, PPARγ; test: Lipid-protein pull down assay, dorsal striatum lysate; type: binding; conditions: GlcCer-beads, dorsal striatum of mice
T2 construct: from tissue; host or cells: mouse dorsal striatum
Experimental: Dorsal striatal tissues were cut into small pieces and then centrifuged at 13,000 g for 15 min at 4 °C. Supernatants were collected, and protein concentrations were determined using BCA assay. GlcCer-beads were equilibrated by washing them three times with ice-cold PBS. The clarified cell lysate was added to the equilibrated beads, then the mixture was incubated on a rotator at 4 °C for overnight, use approximately 500 µg of total protein per reaction. After incubation, the beads were washed three times with ice-cold PBS. Following the final wash, the beads were resuspended in SDS-PAGE sample buffer and heat at 95°C for 5 min to elute the bound proteins. The eluted sample was used to western blotting analysis.

[3] = test system: T3, PPARγ; test: PPARγ transcription activity assay (PPRE binding), N2a cells; type: cell-based
T3 construct: endogenous in cells; host or cells: N2a cells (nuclear extract)
Experimental: (§1) Nuclear extracts were prepared from N2a cells using a nuclear extraction kit according to the manufacturer protocol. The binding reaction between PPARγ and PPRE was carried out at 4°C for 16 h using 3 μg of nuclear extracts. The binding activity between PPARγ and PPRE was indicated by the change of optical density (OD) at 405 nm, and an enzyme reaction was measured by HRP-conjugated antibody in complex of PPRE/ PPARγ/antibody.

[4] = test system: PPARγ; test: PPRE-luciferase (dual-luciferase) activity assay in N2a cells; type: cell-based; conditions: N2a cells transfected with wild-type Pparg
Experimental: N2a cells were seeded into 24-well plates and cultured for 24 hours before transfection. A DNA mixture containing the PPRE-luciferase reporter plasmid (0.5 μg), PPARγ/ PPARγ mutation plasmid (0.5 μg) and an internal control plasmid pRL-SV-40 (25 ng) was transfected using lipofectamine 3000 transfection reagent (L3000001, Invitrogen, USA) according to the manufacturer's recommendations. After transfection, the cells were incubated for an additional 48 h.

[5] = test system: PPARγ target genes; test: qRT-PCR of PPARγ target genes in PPARγ-overexpressing N2a cells; type: cell-based; conditions: 0.1, 1 and 10 μM
[6] = test system: T2, PPARγ; test: PPARγ mRNA, protein and transcriptional activity in dorsal striatum of CRS-induced mice; type: in vivo; conditions: intra-dorsal striatum pioglitazone, GlcCer or combination
Excerpt: Dorsal striatal tissues were processed in accordance with the RNA isolation kit's instructions (RC102/RC112; Vazyme Biotech Co.,Ltd), mRNA was reverse transcribed using HiScript® III All-in-one RT SuperMix (Vazyme Biotech Co.,Ltd), and cDNA was amplified using SYBR Green (Vazyme Biotech Co.,Ltd). The 2^-ΔΔCt method was used to analyze gene expression, and the relative level of the target gene was normalized to Gapdh. The primer sequences can be found in Supplemental materials Table S1.
Brain tissues were cut into small pieces and then centrifuged at 13,000 g for 15 min at 4 °C. Supernatants were collected, and proteins concentrations were determined by BCA assay. Samples were denatured at 95 °C for 5 min and subsequently stored at -80 °C for further use. Protein samples were loaded onto 10% SDS-PAGE and transferred on PVDF membranes. After being blocked with 5% nonfat dry milk in Tris-buffered saline with 0.1% Tween-20 for 1.5 h, the PVDF membranes were incubated with corresponding primary antibodies overnight at 4 °C. Membranes were then incubated with HRP-conjugated secondary antibodies for 1 h at room temperature and measured with chemiluminescence imaging system (ChemiScope; Clinx, China).
as §1

[7] = LC-MS of GlcCer levels in dorsal striatum of CRS-induced mice; type: in vivo; conditions: intra-dorsal striatum infusion of pioglitazone, GlcCer or combination
Experimental: The procedure for the extraction of sphingolipids was established according to the LIPID MAPS protocol with modifications. Briefly, dorsal striatal tissues were added 0.5 mL of MeOH, 0.25 mL of CHCl3 and 7.5 μL of internal standards cocktail (2.5 μM). For sphingolipidomics, 5 μL of internal standards mixture (LM6002, Avanti polar lipids) was added. The mixture was then ultrasonicated for 45 s at room temperature and incubation at 48°C overnight. To avoid potentially interfering glycerolipids, 75 μL of KOH in MeOH (1M) was added, followed by incubation in a heat block at 200 rpm for 2 h at 37 °C. After neutralization, a four-step extraction process was performed to obtain SPL extract for analysis. The supernatant was transferred to a new Eppendorf tube and the resides were added l mL of MeOH and 2 mL of CHCl3, followed by centrifugation at 3800 rpm for 8 min. […] Sphingolipidomics were measured with ultra-high-performance liquid chromatography (UPLC) coupled with hybrid Quadrupole-Orbitrap high resolution mass spectrometry (Q-Exactive-HRMS). […] For […] quantitation, brain tissues were quantified by UPLC-MS/MS using a Q-Exactive-HRMS with UPLC. […] Quantification of […] with various fatty acid chain lengths were achieved using the calibration curve of each GlcCer species with closest number of chain length. […]

[8] = test system: aged mice; conditions: oral administration, ref [35]; cited from earlier work
[9] = test system: human PPARγ-LBD; test: Surface plasmon resonance, PPARγ LBD; conditions: Figure S7B, C
Experimental: Prepared human PPARγ-LBD and human PPARγ-full length (Active Motif, USA) were immobilized onto a CM5 sensor chip using amine coupling. Briefly, the protein was diluted to 50 μg/mL in immobilization buffer and covalently attached to the CM5 chip via an Amine Coupling Kit (Cytiva, USA), following the manufacturer's instructions. A channel without immobilized protein was used as a blank control. […] Gradient concentrations of GlcCer were injected over both channels at a flow rate of 30 μL/min, with an association time and dissociation time of 85 s each.

In the case of Glucosylceramide [GlcCer], the “binding affinity for the LBD (BLI)” value [1] is reported as “minimal binding affinity”, the “interaction between PPARγ and GlcCer (lipid-protein binding assay)” value [2] is reported as “direct interaction” and the “PPARγ transcriptional (DNA binding) activity in N2a cells” value ([3]; Figure 5H, GlcCer, pioglitazone or combination) is reported as “increased PPARγ transcriptional activity in a dose-dependent manner”. The “PPARγ transcriptional activity, nuclear extracts from N2a cells” value ([3]; pioglitazone (100 nM), GlcCer (10 μM), or their combination, Figure S7F) was “significantly increased”, the “PPARγ activity (dual-luciferase)” value [4] was “increased” and the “expression of Adipoq and Leptin” value [5] was “robustly upregulated”. For the same substance, the “expression of adipogenesis-related genes (Srebp-1c, Adrp, Fabp4, Fasn, Cd36)” value [5] was “little or no effect”, the “PPARγ activity in the dorsal striatum” value [6] was “significantly enhanced” and the “PPARγ mRNA or protein expression” value [6] was “neither pioglitazone, GlcCer, nor their combination altered”. The “GlcCer levels in the dorsal striatum (LC-MS)” value [7] was “increased”, the “neuroinflammation and memory deficits” value [8] was “alleviate” and the “binding affinity for the LBD (SPR)” value [9] was “minimal binding affinity”.
